Values of other authors as cited in patent US11311573B2, “Pharmaceutical preparations and methods to manage weight and to modulate the gut microbiota” (XENO BIOSCIENCES INC., priority 2016, dated 2022).

Conditions: rat, based on chronic oral hydrogen peroxide treatment

## O=C([O-])[O-].O=C([O-])[O-].OO.OO.OO.[Na+].[Na+].[Na+].[Na+] [sodium percarbonate, Sodium percarbonate]
  No-observable-adverse-effect-level (NOAEL): 81 to 115 mg/kg/day
